Measured values published in US20150374709A1, “TETRA-SUBSTITUTED NDGA DERIVATIVES VIA ETHER BONDS AND CARBAMATE BONDS AND THEIR SYNTHESIS AND PHARMACEUTICAL USE” (ERIMOS PHARMACEUTICALS LLC, priority 2006, published 2015).

Assays:
[1] = tested on: HeLa (cervical adenocarcinoma); assay: MTS cell viability assay, HeLa; type: cell-based; details: Homo sapiens, HeLa, MTS assay; read-out: HeLa IC50
Description: Studies performed regarding cytotoxicity included the well-known MTS, Trypan Blue and MTT protocols. The MTS studies were done using the CellTiter 96®AQueous One Solution Cell Proliferation Assay (Promega Corporation, Madison, Wis. USA). Metabolically active, namely viable, cells turn MTS, a tetrazolium compound (3-(4,5-dimethylthiazol-2-yl)-5-(3-carboxymethoxyphenyl)-2-(4-sulfophenyl)-2H-tetrazolium, inner salt) into colored formazan, which is soluble in tissue culture medium. The measurement of the absorbance of the formazan is read at 490 nm. The ready to use reagent is added directly to the cells in media in 96-well plates, incubated 1-4 hours and the results are recorded by the plate reader. The IC50 is estimated by graphing the gathered data. The IC50 is the concentration of the tested material that inhibits 50% of growth or viability of the tested material compared to a control.
Three cell lines obtained from ATCC and maintained as directed by ATCC were tested: HeLa (cervical adenocarcinoma), A549 (lung carcinoma), and COS-7 (SV40 transformed monkey kidney). Studies of these cell lines are considered to be indicative of the effect of tested substances on mammalian, including human, diseases.
All compounds were dissolved in DMSO and DMSO is used as the placebo. The samples were first dissolved into 10 mM dilutions in DMSO and then diluted further to 5, 1, 0.5, 0.1, 0.05, and 0.01 mM solutions. These solutions were added to the media at a 1% concentration (1 μl to 100 μl media) to treat the cells with 100, 50, 10, 5, 1, 0.5, and 0.1 μM of the compound. […] Solutions were checked before use for precipitation, especially the 10 mM solutions. If there was precipitation, they were warmed 65° C. and added to warmed media.
Wells on a 96-well plate were seeded with 1.5-8×10^4 cells in 100 μl media and incubated overnight. The outside wells of the plate were filled with 200 μl sterile, deionized (DI) water to curb media evaporation. After 24 hours, test chemicals were prepared in media at a concentration of 1% media volume. The test sample media were added, mixing with pipette before adding 100 μl per well. Media was added to the “Media Only” wells. The well plate and its contents were incubated for 24-72 hours, depending on the study conducted. On the thy of the MTS assay, the MTS reagent was removed from the refrigerator and brought to room temperature. Using the multichannel pipette, 20 μl of the MTS reagent was added to each well and incubated for one to four hours. The plate was read at 490 nm with a reference wavelength of 690 nm after one hour in the incubator thereafter until the blank wells were at about 0.2 OD. The results were then scanned into a Microsoft® Excel® template designed to perform all necessary calculations whim data are entered. The data were checked for statistical errors; data points that are within 10% of the mean of the data points for that group were included. The average of the blanks (“Media Only”) were subtracted and the data were inserted into a chart that represents growth response, treated/untreated.

CNS cell lines = assay: NCI DTP human tumor cell line screen, CNS panel; type: cell-based; details: CNS (6 cell lines)
Description: The United States National Cancer Institute (NCI) provides a developmental therapeutics program (DTP) (http://dtp.nci.nih.gov/branches/btb/ivelsp.html) to screen submitted substances in support of cancer drug discovery. The In Vitro Cell Line Screening Project (IVCLSP) is a dedicated service providing direct support to the DTP anticancer drug discovery program and is designed to screen up to 3,000 compounds per year for potential anticancer activity. The operation of this screen utilizes 60 different human tumor cell lines, representing leukemia, melanoma and cancers of the lung, colon, brain, ovary, breast, prostate, and kidney. The aim is to prioritize for farther evaluation, synthetic compounds or natural product samples showing selective growth inhibition or cell killing of particular tumor cell lines. This screen is unique in that the complexity of a 60 cell line dose response produced by a given compound results in a biological response pattern which can be utilized in pattern recognition algorithms (COMPARE program. See: http://dtp.nci.nih.gov/docs/compare/compare.html). Using these algorithms, it is possible to assign a putative mechanism of action to a test compound, or to determine that the response pattern is unique and not similar to that of any of the standard prototype compounds included in the NCI database. […]

C[C@H](Cc1ccc(OCCCN2CCCCC2)c(OCCCN2CCCCC2)c1)[C@@H](C)Cc1ccc(OCCCN2CCCCC2)c(OCCCN2CCCCC2)c1 [Compound A, 1,4-bis{3,4-bis[3-(piperidin-1-yl)propoxy]phenyl}-2,3-dimethyl-(2R,3S)-butane]
IC50 [1]: 2 to 3 µM | Mean Growth Percent at 10 μM (CNS cell lines): −93.97%
